# Data from patent US8252940B2, “5-substituted-2-imino-thiazolidinone compounds and their use as inhibitors of bacterial infection” (University of Washington, priority 2008, dated 2012).
# System: type III secretion in S. typhimurium
# Test: microbe, parasite or virus in culture
# Type: cell-based, Salmonella enterica serovar Typhimurium
# Conditions: for inhibition at 33 µM / inhibition at 330 µM / inhibition at 3.3 µM: read-out: % inhibition of SipA secretion; for % Secretion: type III secretion in S. typhimurium, SipA secretion by Western blot
# [1] = Salmonella enterica, TYPHIMURIUM
smiles,measurement,setting,value
"COc1cc(/C=C2\S/C(=N\c3ccccc3)N(C(C(=O)N[C@@H](Cc3ccc(O)cc3)C(N)=O)C(C)C)C2=O)cc(OC)c1O (single isomer, unassigned) [compound 69]",inhibition at 33 µM,[1],32%
same,inhibition at 330 µM,[1],97%
COc1cc(/C=C2\S/C(=N\c3ccccc3)N([C@@H](C)C(=O)N[C@@H](CCCNC(=N)N)C(N)=O)C2=O)cc(OC)c1O [Compound 2],SipA detected in the supernate,"3.8 μM, Western blot",minimal SipA was detected
same,inhibition at 38 µM,"Salmonella enterica, TYPHIMURIUM, read-out: inhibition of detectable secreted SipA",100%
same,% Secretion,,0 ± 0%
COc1ccc(N2C(=O)/C(=C/c3cc(OC)c(O)c(OC)c3)S/C2=N\c2ccccc2)cc1 [Compound 3],% Secretion,,0 ± 0%
COc1cc(/C=C2\S/C(=N\c3ccccc3)NC2=O)cc(OC)c1O [Compound 4],% Secretion,,9 ± 6%
COc1cc(/C=C2\SC(=N)N(c3ccccc3)C2=O)cc(OC)c1O [Compound 5],% Secretion,,81.2 ± 0%
COc1cc(/C=C2\SC(=N)NC2=O)cc(OC)c1O [Compound 6],% Secretion,,64 ± 4%
O=C1/C(=C/c2ccccc2)S/C(=N\c2ccccc2)N1c1ccccc1 [Compound 7],% Secretion,,90 ± 2%
O=C1CS/C(=N\c2ccccc2)N1c1ccccc1 [Compound 8],% Secretion,,62 ± 3%
COc1cc(CC2SC(=N)NC2=O)cc(OC)c1O (stereo not shown) [Compound 9],% Secretion,,72 ± 0%
"COc1cc(/C=C2\S/C(=N\c3ccccc3)N(CCCCCCN)C2=O)cc(OC)c1O [compound 45, (2Z,5Z)-3-(6-aminohexyl)-5-(4-hydroxy-3,5-dimethoxybenzylidene)-2-(phenylimino)-thiazolidin-4-one]",inhibition at 3.3 µM,[1],12%
same,inhibition at 33 µM,[1],42%
same,inhibition at 330 µM,[1],95%
"COc1cc(/C=C2\S/C(=N\c3ccc(CN)cc3)N(c3ccccc3)C2=O)cc(OC)c1O [compound 46, (2Z,5Z)-2-(4-(aminomethyl)phenylimino)-5-(4-hydroxy-3,5-dimethoxybenzyldene)-3-phenylthiazolidin-4-one]",% inhibition of SipA secretion,"3.3 μM, Western blot",7%
same,% inhibition of SipA secretion,"33 μM, Western blot",16%
same,% inhibition of SipA secretion,"330 μM, Western blot",85%
"COc1cc(/C=C2\S/C(=N\c3ccc(CN)cc3)N(c3ccccc3)C2=O)cc(OC)c1O [compound 47, (2Z,5Z)-3-(4-(aminomethyl)phenylimino)-5-(4-hydroxy-3,5-dimethoxybenzyldene)-2-phenylthiazolidin-4-one]",% inhibition of SipA secretion,"3.3 μM, Western blot",8%
same,% inhibition of SipA secretion,"33 μM, Western blot",35%
same,% inhibition of SipA secretion,"330 μM, Western blot",100%
"COc1cc(/C=C2\S/C(=N\c3ccccc3)N([C@@H](C)C(=O)N[C@@H](C)C(N)=O)C2=O)cc(OC)c1O [compound 49, (S)-N-((S)-1-amino-1-oxopropan-2-yl)-2-((2Z,5Z)-5-(4-hydroxy-3,5-dimethoxybenzylidene)-4-oxo-2-(phenylimino)thiazolidin-3-yl)propanamide]",inhibition at 33 µM,[1],26%
same,inhibition at 330 µM,[1],94%
"COc1cc(/C=C2\S/C(=N\c3ccccc3)N([C@@H](C)C(=O)N[C@@H](Cc3ccc(O)cc3)C(N)=O)C2=O)cc(OC)c1O [compound 50, (S)-N-((S)-1-amino-3-(4-hydroxyphenyl)-1-oxopropan-2-yl)-2-((2Z,5Z)-5-(4-hydroxy-3,5-dimethoxybenzylidene)-4-oxo-2-(phenylimino)thiazolidin-3-yl)propanamide]",inhibition at 330 µM,[1],90%
"COc1cc(/C=C2\S/C(=N\c3ccccc3)N(C(C)C(=O)N[C@@H](Cc3c[nH]c4ccccc34)C(N)=O)C2=O)cc(OC)c1O (stereo partly drawn) [compound 51, N-((S)-1-amino-3-(1H-indol-3-yl)-1-oxopropan-2-yl)-2-((2Z,5Z)-5-(4-hydroxy-3,5-dimethoxybenzylidene)-4-oxo-2-(phenylimino)thiazolidin-3-yl)propanamide]",inhibition at 330 µM,[1],100%
"COc1cc(/C=C2\S/C(=N\c3ccccc3)N([C@H](C)C(=O)N[C@@H](Cc3c[nH]c4ccccc34)C(N)=O)C2=O)cc(OC)c1O [compound 52, (R)-N-((S)-1-amino-3-(1H-indol-3-yl)-1-oxopropan-2-yl)-2-((2Z,5Z)-5-(4-hydroxy-3,5-dimethoxybenzylidene)-4-oxo-2-(phenylimino)thiazolidin-3-yl)propanamide]",inhibition at 330 µM,[1],100%
"COc1cc(/C=C2\S/C(=N\c3ccccc3)N([C@@H](C)C(=O)N[C@@H](CCCN)C(N)=O)C2=O)cc(OC)c1O [compound 54, (S)-5-amino-2-((S)-2-((2Z,5Z)-5-(4-hydroxy-3,5-dimethoxybenzylidene)-4-oxo-2-(phenylimino)thiazolidin-3-yl)propanamido)pentanamide]",inhibition at 330 µM,[1],94%
"COc1cc(/C=C2\S/C(=N\c3ccccc3)N([C@@H](C)C(=O)N[C@@H](CCCNC(=N)N)C(N)=O)C2=O)cc(OC)c1O [compound 56, (S)-5-Guanidino-2-((S)-2-((2Z,5Z)-5-(4-hydroxy-3,5-dimethoxybenzylidene)-4-oxo-2-(phenylimino)thiazolidin-3-yl)propanamido)pentanamide]",inhibition at 33 µM,[1],1%
same,inhibition at 330 µM,[1],100%
"COc1cc(/C=C2\S/C(=N\c3ccccc3)N(CC(=O)O)C2=O)cc(OC)c1O [compound 57, 2-((2Z,5Z)-5-(4-hydroxy-3,5-dimethoxybenzylidene)-4-oxo-2-(phenylimino)thiazolidin-3-yl)acetic acid]",inhibition at 3.3 µM,[1],51%
same,inhibition at 330 µM,[1],100%
"COc1cc(/C=C2\S/C(=N\c3ccccc3)N(CCCC(=O)OC(C)(C)C)C2=O)cc(OC)c1O [compound 60, t-Butyl-4-((2Z,5Z)-5-(4-hydroxy-3,5-dimethoxybenzylidene)-4-oxo-2-(phenylimino)thiazolidin-3-yl)butanoate]",inhibition at 3.3 µM,[1],35%
same,inhibition at 330 µM,[1],90%
"COc1cc(/C=C2\S/C(=N\c3ccccc3)N(CCCC(=O)O)C2=O)cc(OC)c1O [compound 61, 4-((2Z,5Z)-5-(4-hydroxy-3,5-dimethoxybenzylidene)-4-oxo-2-(phenylimino)thiazolidin-3-yl)butanoic acid]",inhibition at 3.3 µM,[1],70%
same,inhibition at 330 µM,[1],74%
"COc1cc(/C=C2\S/C(=N\c3ccccc3)N([C@H](C)C(=O)N[C@@H](CCCN)C(N)=O)C2=O)cc(OC)c1O [compound 84, (S)-5-amino-2-((R)-2-((2Z,5Z)-5-(4-hydroxy-3,5-dimethoxybenzylidene)-4-oxo-2-(phenylimino)thiazolidin-3-yl)propanamido)pentanamide]",inhibition at 3.3 µM,[1],5%
same,inhibition at 330 µM,[1],99%
"COc1cc(/C=C2\S/C(=N\c3ccccc3)N([C@H](C)C(=O)N[C@@H](CCCNC(=N)N)C(N)=O)C2=O)cc(OC)c1O [compound 85, (S)-5-guanidino-2-((R)-2-((2Z,5Z)-5-(4-hydroxy-3,5-dimethoxybenzylidene)-4-oxo-2-(phenylimino)thiazolidin-3-yl)propanamido)pentanamide]",inhibition at 33 µM,[1],31%
same,inhibition at 330 µM,[1],99%
COc1cc(/C=C2\S/C(=N\c3ccccc3)N([C@@H](CCCN)C(=O)N[C@@H](C)C(N)=O)C2=O)cc(OC)c1O [compound 86],% inhibition of SipA secretion,"3.3 μM, Western blot",19%
same,% inhibition of SipA secretion,"33 μM, Western blot",46%
same,% inhibition of SipA secretion,"330 μM, Western blot",100%
"COc1cc(/C=C2\S/C(=N\c3ccccc3)N([C@@H](CCCNC(=N)N)C(=O)N[C@@H](C)C(N)=O)C2=O)cc(OC)c1O [compound 87, (S)-N-((S)-1-amino-1-oxopropan-2-yl)-5-guanidino-2-((2Z,5Z)-5-(4-hydroxy-3,5-dimethoxybenzylidene)-4-oxo-2-(phenylimino)thiazolidin-3-yl)pentanamide]",inhibition at 3.3 µM,[1],0%
same,inhibition at 33 µM,[1],38%
same,inhibition at 330 µM,[1],100%
"COc1cc(/C=C2\S/C(=N\c3ccccc3)N(C(CCCNC(=N)N)C(=O)N3Cc4ccccc4C[C@H]3C(N)=O)C2=O)cc(OC)c1O (stereo partly drawn) [compound 88, (S)-2-(5-guanidino-2-((2Z,5Z)-5-(4-hydroxy-3,5-dimethoxybenzylidene)-4-oxo-2-(phenylimino)thiazolidin-3-yl)pentanoyl)-1,2,3,4-tetrahydroisoquinoline-3-carboxamide]",inhibition at 33 µM,[1],0%
same,inhibition at 330 µM,[1],100%
"COc1cc(/C=C2\SC(=Nc3ccccc3)N([C@@H](CCCN)C(=O)N[C@@H](CC3CNc4ccccc43)C(N)=O)C2=O)cc(OC)c1O (stereo partly drawn) [compound 90, (S)-5-amino-N-((S)-1-amino-3-(indolin-3-yl)-1-oxopropan-2-yl)-2-((5Z)-5-(4-hydroxy-3,5-dimethoxybenzylidene)-4-oxo-2-(phenylimino)thiazolidin-3-yl)pentanamide]",inhibition at 3.3 µM,[1],20%
same,inhibition at 33 µM,[1],22%
same,inhibition at 330 µM,[1],100%
COc1cc(/C=C2\S/C(=N\c3ccccc3)N([C@@H](CCCN)C(=O)N[C@@H](Cc3ccc(-c4ccccc4)cc3)C(N)=O)C2=O)cc(OC)c1O [compound 91],% inhibition of SipA secretion,3.3 µM,100 (330) 66 (33) 3 (3.3) %
same,% inhibition of SipA secretion,33 µM,100 (330) 66 (33) 3 (3.3) %
same,% inhibition of SipA secretion,330 µM,100 (330) 66 (33) 3 (3.3) %
"COc1cc(/C=C2\S/C(=N\c3ccccc3)N(C(CCCNC(=N)N)C(=O)N3CSC[C@H]3C(N)=O)C2=O)cc(OC)c1O (stereo partly drawn) [compound 94, (R)-3-(5-guanidino-2-((2Z,5Z)-5-(4-hydroxy-3,5-dimethoxybenzylidene)-4-oxo-2-(phenylimino)thiazolidin-3-yl)pentanoyl)thiazolidine-4-carboxamide]",inhibition at 3.3 µM,[1],3%
same,inhibition at 33 µM,[1],7%
same,inhibition at 330 µM,[1],89%
"COc1cc(/C=C2\S/C(=N\c3ccccc3)N(C(Cc3ccncc3)C(=O)N[C@@H](CCCNC(=N)N)C(N)=O)C2=O)cc(OC)c1O (stereo partly drawn) [compound 95, (S)-5-guanidino-2-(2-((2Z,5Z)-5-(4-hydroxy-3,5-dimethoxybenzylidene)-4-oxo-2-(phenylimino)thiazolidin-3-yl)-3-(pyridin-4-yl)propanamido)pentanamide]",inhibition at 33 µM,[1],8%
same,inhibition at 330 µM,[1],89%
COc1cc(/C=C2\S/C(=N\c3ccccc3)N([C@@H](Cc3ccc(-c4ccccc4)cc3)C(=O)N[C@@H](CCCNC(=N)N)C(N)=O)C2=O)cc(OC)c1O [compound 96],% inhibition of SipA secretion,3.3 µM,100 (330) 95 (33) 54 (3.3) %
same,% inhibition of SipA secretion,33 µM,100 (330) 95 (33) 54 (3.3) %
same,% inhibition of SipA secretion,330 µM,100 (330) 95 (33) 54 (3.3) %
